{"source": "patent US20230341397A1", "about": "“PROTEASE BIOSENSORS AND METHODS OF VIRUS DETECTION” (Montana Molecular LLC, priority 2020, published 2023)", "key": {"[1]": {"test_system": "feline infectious peritonitis virus (FPIV)", "conditions": "Kim et al. 2016; disease otherwise 100% lethal; cited from earlier work"}, "HEK 293 cells": {"test_system": "HEK 293 cells", "conditions": "all GC376 concentrations (FIG. 11B)"}}}
{"molecule": "CC(C)C[C@H](NC(=O)OCc1ccccc1)C(=O)N[C@@H](C[C@@H]1CCNC1=O)C(O)S(=O)(=O)[O-].[Na+]", "note": "(some centres unmarked) [GC376]", "values": [{"measurement": "outcome in cats with clinical FPIV", "setting": "[1]", "value": "rescues them"}, {"measurement": "cell death / red fluorescent protein signal", "setting": "HEK 293 cells", "value": "not due to cell death"}]}
